The source of these data is publication PMC4175002, “The Design and Synthesis of Potent and Selective Inhibitors of Trypanosoma brucei Glycogen Synthase Kinase 3 for the Treatment of Human African Trypanosomiasis” (Journal of Medicinal Chemistry, 2014).

As usually defined, the inhibition is the percentage by which the read-out fell short of the control.

One assay deals with T1, P38b MAPK (Homo sapiens, UniProt Q15759).
T1 construct: purchased Division of Signal Transduction Therapy (DSTT), University of Dundee
T1 sequence (Q15759 whole entry): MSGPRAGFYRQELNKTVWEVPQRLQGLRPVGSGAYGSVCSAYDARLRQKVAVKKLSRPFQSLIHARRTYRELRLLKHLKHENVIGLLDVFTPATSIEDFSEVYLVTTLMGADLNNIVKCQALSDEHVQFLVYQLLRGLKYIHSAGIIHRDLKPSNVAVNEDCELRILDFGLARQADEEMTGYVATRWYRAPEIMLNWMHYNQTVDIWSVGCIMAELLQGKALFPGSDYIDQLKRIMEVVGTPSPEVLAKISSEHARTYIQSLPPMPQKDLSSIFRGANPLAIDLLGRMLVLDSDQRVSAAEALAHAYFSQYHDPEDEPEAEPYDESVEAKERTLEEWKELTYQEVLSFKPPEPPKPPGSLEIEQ
As to the kind of experiment: Mammalian kinase profiling (DSTT panel). The conditions noted are these: 10 μM; average percentage of remaining activity. In kind it is biochemical.

The target of another assay is HsCDK2/cyclin A (Homo sapiens, UniProt P24941). As to the kind of experiment: Radiometric Flashplate potency assay, HsCDK2/cyclin A. In kind it is biochemical. The note with it: ratio of IC50 values. Here is the method:
For compound potency determinations, a radiometric 96-well Flashplate assay (PerkinElmer) was adopted. Compounds were solubilized in DMSO at a top concentration of 3 mM and serially diluted to achieve 10-point titration of final assay concentrations from 30 μM to 0.3 nM with a final DMSO concentration of 1% (v/v). The reaction mixtures contained 1 μM biotinylated GSP2 substrate, 1 μM ATP, 3.7 KBq/well [γ-33P]-ATP and 2.5 nM TbGSK3 in the TbGSK3 kinase assay buffer. GSK3 inhibitors were screened for selectivity assessment also against HsGSK3β. For HsGSK3 assay, the reaction mixes contained 1 μM biotinylated GSP2 substrate, 2 μM ATP, 7.4 KBq/well [γ-33P]-ATP and 15 nM HsGSK3β in the TbGSK3 kinase assay buffer (25 mM Tris-HCl, pH 7.5, 10 mM MgCl2, 5 mM DTT, 0.02% CHAPS, 2 U/mL heparin). For HsCDK2/cyclin A assay, the reaction mixtures contained 1 mM CDK5 biotinylated peptide substrate (Biotin-C6-PKTPKKAKKL), 1 μM ATP, 7.4 KBq/well [γ-^33P]-ATP and 2 nM HsCDK2/cyclin A in the kinase assay buffer (50 mM Tris-HCl, pH 7.5, 10 mM MgCl2, 2 mM DTT, 100 mM NaCl, 0.2 mM EGTA, 0.02% (v/v) Brij35).
For the HsCDK2 assay, the analysis was performed using two different standards (GW8510 and staurosporine) tested respectively five times in a single run and 19 times in 2 independent runs. This implies that a difference of >0.3 in pIC50 can be considered statistically significant for this assay.

For the next assay, the system named is endogenous TbGSK3 short. The note with it: parasite cell extracts; cited from earlier work.
The next assay deals with T2, CDK2 (Homo sapiens, UniProt P24941).
T2 construct: purchased Division of Signal Transduction Therapy (DSTT), University of Dundee
Description: Mammalian kinase profiling (DSTT panel). In kind it is biochemical.

Another assay has as its target T3, GSK3b (Homo sapiens, UniProt P49841).
T3 construct: purchased Division of Signal Transduction Therapy (DSTT), University of Dundee
Description: Mammalian kinase profiling (DSTT panel). In kind it is biochemical. The conditions noted are these: read-out: inhibition of GSK3β.

For the next assay, the system named is MRC5 cells. Description: MRC5 proliferation assay (resazurin). In kind it is cell-based, human. The note with it: T. b. brucei versus MRC5 EC50. Here is the method: (§1) Measurement of inhibition of the proliferation of MRC5 (human lung fibroblast) cells and T. b. brucei bloodstream stage cells was performed using a modification of the cell viability assay previously described.[33] Compounds (50 μM to 0.5 nM) were incubated with 2 × 10^3 cells/well in 0.2 mL of the appropriate culture medium (MEM with 10% fetal bovine serum for MRC5 cells) in clear 96-well plates. Plates were incubated at 37 °C in the presence of 5% CO2 for 69 h. Resazurin was then added to a final concentration of 50 μM, and plates were incubated as above for a further 4 h before being read on a BioTek flx800 fluorescent plate reader.
A general note: Alamar Blue is a resazurin reagent that responds to reducing activity.

The test system of assay [1] is bloodstream form T. b. brucei. As to the kind of experiment: Trypanosome proliferation assay (resazurin). In kind it is cell-based. The conditions noted are these: Trypanosoma brucei, 72 h, concentration required to inhibit growth in culture by 50% over 72 h. Here is the method: as §1
A further assay addresses T4, PKBa (Homo sapiens, UniProt P31749).
T4 construct: purchased Division of Signal Transduction Therapy (DSTT), University of Dundee
As to the kind of experiment: Mammalian kinase profiling (DSTT panel). The note with it: average percentage of remaining activity, read-out: PKBa activity compared to the control. In kind it is biochemical.

In a further assay the target is T5, PRK2 (Homo sapiens, UniProt Q16513).
T5 construct: purchased Division of Signal Transduction Therapy (DSTT), University of Dundee
T5 sequence (Q16513 whole entry): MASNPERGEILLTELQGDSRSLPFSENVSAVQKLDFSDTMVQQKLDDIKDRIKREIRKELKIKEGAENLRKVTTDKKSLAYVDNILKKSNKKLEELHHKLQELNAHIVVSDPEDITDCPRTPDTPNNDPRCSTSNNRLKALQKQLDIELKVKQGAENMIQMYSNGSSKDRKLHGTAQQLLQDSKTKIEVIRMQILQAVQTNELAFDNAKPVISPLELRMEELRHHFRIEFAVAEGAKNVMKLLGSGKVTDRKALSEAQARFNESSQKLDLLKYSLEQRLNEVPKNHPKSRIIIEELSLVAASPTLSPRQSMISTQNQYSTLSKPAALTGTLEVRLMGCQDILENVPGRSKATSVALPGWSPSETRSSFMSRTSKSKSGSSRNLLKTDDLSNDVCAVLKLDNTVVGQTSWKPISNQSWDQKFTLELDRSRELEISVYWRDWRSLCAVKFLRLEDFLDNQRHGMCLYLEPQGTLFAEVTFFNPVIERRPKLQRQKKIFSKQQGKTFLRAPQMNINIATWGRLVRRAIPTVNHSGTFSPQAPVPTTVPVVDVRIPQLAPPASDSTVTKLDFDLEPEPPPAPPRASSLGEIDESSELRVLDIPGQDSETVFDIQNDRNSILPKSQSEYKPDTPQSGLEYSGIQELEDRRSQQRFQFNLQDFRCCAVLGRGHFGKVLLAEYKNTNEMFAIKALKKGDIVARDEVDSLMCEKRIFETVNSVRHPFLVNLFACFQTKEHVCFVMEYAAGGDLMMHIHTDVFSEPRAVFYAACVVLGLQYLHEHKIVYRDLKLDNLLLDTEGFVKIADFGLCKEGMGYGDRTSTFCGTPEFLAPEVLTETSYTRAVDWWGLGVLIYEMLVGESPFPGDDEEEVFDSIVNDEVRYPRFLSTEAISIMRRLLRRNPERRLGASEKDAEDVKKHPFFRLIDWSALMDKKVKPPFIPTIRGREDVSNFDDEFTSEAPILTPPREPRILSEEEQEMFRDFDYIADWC
As to the kind of experiment: Mammalian kinase profiling (DSTT panel). It is filed as biochemical. The conditions noted are these: 10 μM; average percentage of remaining activity.

The next assay addresses T6, RSK2 (Homo sapiens, UniProt P51812).
T6 construct: purchased Division of Signal Transduction Therapy (DSTT), University of Dundee
As to the kind of experiment: Mammalian kinase profiling (DSTT panel). In kind it is biochemical. The conditions noted are these: 10 μM; average percentage of remaining activity.

T6 sequence (P51812 whole entry): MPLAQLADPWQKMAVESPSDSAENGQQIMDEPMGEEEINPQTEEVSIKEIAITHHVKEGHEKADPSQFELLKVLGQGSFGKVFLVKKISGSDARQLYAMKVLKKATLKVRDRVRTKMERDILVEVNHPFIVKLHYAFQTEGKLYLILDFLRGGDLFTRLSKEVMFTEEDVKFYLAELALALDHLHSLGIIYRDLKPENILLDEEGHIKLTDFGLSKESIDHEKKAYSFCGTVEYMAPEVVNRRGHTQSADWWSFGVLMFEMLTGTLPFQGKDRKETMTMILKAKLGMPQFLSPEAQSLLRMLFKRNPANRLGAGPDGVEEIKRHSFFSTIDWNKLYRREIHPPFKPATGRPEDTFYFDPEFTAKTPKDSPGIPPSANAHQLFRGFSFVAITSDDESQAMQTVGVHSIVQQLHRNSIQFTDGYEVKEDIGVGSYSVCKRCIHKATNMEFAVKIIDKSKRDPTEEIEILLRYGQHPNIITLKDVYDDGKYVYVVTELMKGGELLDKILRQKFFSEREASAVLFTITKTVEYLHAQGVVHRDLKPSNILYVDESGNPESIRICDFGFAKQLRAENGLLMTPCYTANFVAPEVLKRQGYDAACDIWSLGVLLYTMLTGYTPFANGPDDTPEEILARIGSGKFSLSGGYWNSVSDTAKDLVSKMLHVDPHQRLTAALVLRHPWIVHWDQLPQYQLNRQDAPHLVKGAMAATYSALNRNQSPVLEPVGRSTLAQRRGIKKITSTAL
T4 sequence (P31749 whole entry): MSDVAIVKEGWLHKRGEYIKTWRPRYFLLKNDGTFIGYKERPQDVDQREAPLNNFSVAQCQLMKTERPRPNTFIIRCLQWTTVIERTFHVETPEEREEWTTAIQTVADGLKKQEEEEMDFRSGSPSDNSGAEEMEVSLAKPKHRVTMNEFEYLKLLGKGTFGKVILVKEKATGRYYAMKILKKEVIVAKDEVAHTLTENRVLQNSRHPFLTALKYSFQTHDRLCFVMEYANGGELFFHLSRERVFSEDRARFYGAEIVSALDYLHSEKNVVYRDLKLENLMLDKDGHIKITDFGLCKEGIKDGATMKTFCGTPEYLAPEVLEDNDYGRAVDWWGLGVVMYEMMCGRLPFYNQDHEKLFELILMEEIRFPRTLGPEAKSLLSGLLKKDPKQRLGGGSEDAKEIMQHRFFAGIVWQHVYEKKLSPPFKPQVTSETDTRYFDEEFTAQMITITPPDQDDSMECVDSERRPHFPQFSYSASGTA
T3 sequence (P49841 whole entry): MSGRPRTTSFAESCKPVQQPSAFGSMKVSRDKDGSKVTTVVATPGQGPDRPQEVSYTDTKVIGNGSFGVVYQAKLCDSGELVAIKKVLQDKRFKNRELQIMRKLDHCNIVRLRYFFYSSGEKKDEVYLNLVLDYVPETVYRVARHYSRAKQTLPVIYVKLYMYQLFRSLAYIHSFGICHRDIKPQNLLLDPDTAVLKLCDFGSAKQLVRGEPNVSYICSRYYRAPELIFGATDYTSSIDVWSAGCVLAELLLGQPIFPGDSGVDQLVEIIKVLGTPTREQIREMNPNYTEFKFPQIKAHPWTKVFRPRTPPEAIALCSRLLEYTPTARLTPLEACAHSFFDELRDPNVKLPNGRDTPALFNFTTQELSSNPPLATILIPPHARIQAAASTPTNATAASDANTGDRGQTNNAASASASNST

`CO[C@H]1CC[C@H](NC(=O)c2n[nH]cc2NC(=O)c2ccccc2)CC1` [Compound 4f, 4-Benzamido-N-(4-methoxycyclohexyl)-1H-pyrazole-3-carboxamide]: the “P38b MAPK activity compared to the control” value on P38b MAPK is listed as 74%. Also, the “ratio HsCDK2/TbGSK3” value at HsCDK2/cyclin A is below 1.6.
With `COc1cccc(OC)c1C(=O)Nc1c[nH]nc1C(=O)NC1CCC(OC)CC1` (stereo not shown) [Compound 4m, 4-(2,6-Dimethoxybenzamido)-N-(4-methoxycyclohexyl)-1H-pyrazole-3-carboxamide], in the assay on endogenous TbGSK3 short, the “affinity for endogenous TbGSK3 short” value is reported as “nanomolar affinity”. Besides, the inhibition at 10 µM on CDK2 and at GSK3b was above 80% throughout. For the same compound, in the assay with MRC5 cells, the “selectivity over MRC5 cells” value worked out at 60 fold. The same compound showed an EC50 in [1] below 1000 nM.
On to `CO[C@H]1CC[C@H](NC(=O)c2n[nH]cc2NC(=O)c2ccc(-c3ccccc3)o2)CC1` [Compound 4y, N-(4-Methoxycyclohexyl)-4-(5-phenylfuran-2-carboxamido)-1H-pyrazole-3-carboxamide], for which, at PKBa, the remaining activity at 10 µM is 86%. In addition, the “PRK2 activity compared to the control” value on PRK2 is 65%. In addition, at RSK2, the “RSK2 activity compared to the control” value is listed as 93%.
